# Laboratory results reported in paper PMC4085797, “Synthetic Inositol Phosphate Analogs Reveal that PPIP5K2 Has a Surface-Mounted Substrate Capture Site that Is a Target for Drug Discovery” (Chemistry & Biology, 2014).
# Changes are numbered by the printed parent chain.
# Columns and labels:
# Type in all cases: biochemical
# PPIP5K2^KD K54A mutant = target: T1, PPIP5K2^KD K54A mutant (Homo sapiens, UniProt O43314, K54A); experiment: ATPase activity of K54A mutant; details: Figures 7B and 7C
# T1 construct: The kinase domain of human PPIP5K2 (PPIP5K2^KD; residues 1–366); made in house
# T1 sequence (O43314 1-366 K54A): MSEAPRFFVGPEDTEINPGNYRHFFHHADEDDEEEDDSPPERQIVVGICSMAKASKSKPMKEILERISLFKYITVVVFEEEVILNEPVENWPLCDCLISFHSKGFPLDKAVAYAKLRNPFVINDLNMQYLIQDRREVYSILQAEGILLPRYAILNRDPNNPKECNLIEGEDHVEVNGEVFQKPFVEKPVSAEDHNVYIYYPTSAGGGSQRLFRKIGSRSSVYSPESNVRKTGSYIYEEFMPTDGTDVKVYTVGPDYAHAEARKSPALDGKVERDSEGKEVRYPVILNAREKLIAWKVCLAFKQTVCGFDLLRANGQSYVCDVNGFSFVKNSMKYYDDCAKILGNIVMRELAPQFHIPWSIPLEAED
# Method: (§1) The initial InsP6 concentration was either 500 nM, 70 nM, or 40 nM. Various concentrations of 2,5-di-O-Bn-InsP4 were present as indicated. Radioactivity was assessed using an in-line Flo1 detector. The ADP-driven dephosphorylation of 100 nM 1,5-[PP]2-InsP4 by PPIP5K2^KD was usually determined by a luminescence-based assay of ATP accumulation ([Riley et al., 2012; Weaver et al., 2013]). The IC50 values were determined using GraphPad Prism v6.02 (n ≥ 3). In some experiments, 1,5-[PP]2-[^3H]InsP4 dephosphorylation by PPIP5K2^KD was assayed in 50 μl buffer containing 50 mM KCl, 20 mM HEPES pH 7.0, 7 mM MgSO4, 5 mM ADP, 1 mM EDTA. Reactions were then quenched, neutralized, and analyzed with HPLC using a Partisphere SAX column ([Weaver et al., 2013]); 1 ml fractions were collected for liquid scintillation spectrometry. The ATPase activity of PPIP5K2^KD (10–270 μg/ml) was assayed from Pi release following incubation at 37°C for 120–180 min in 20 μl reaction mixtures containing 20 mM Tris/HCl, pH 7.5, 10 mM ATP, 100 mM KCl, 0.1 mM EDTA, and 13 mM MgCl2.
# (§2) Protein Expression, Purification, Crystallization and Structure Determination […]
# (§3) The structure was further manually rebuilt with COOT and refined with PHENIX and
# (§4) REFMAC from the CCP4 package. Ligand topology and parameter files were prepared using
# (§5) the PRODRG server. The molecular graphics representations were prepared with the program […]
# PPIP5K2^KD K103A mutant = target: T2, PPIP5K2^KD K103A mutant (Homo sapiens, UniProt O43314, K103A); experiment: ATPase activity of K103A mutant; details: Figures 7B and 7C
# T2 construct: The kinase domain of human PPIP5K2 (PPIP5K2^KD; residues 1–366); made in house
# T2 sequence (O43314 1-366 K103A): T1 sequence (O43314 1-366 K54A) with A54K, K103A
# Method: as §1, §2, §3, §4, §5
# PPIP5K2^KD E192G mutant = target: T3, PPIP5K2^KD E192G mutant (Homo sapiens, UniProt O43314, E192G); experiment: ATPase activity of E192G mutant
# T3 construct: The kinase domain of human PPIP5K2 (PPIP5K2^KD; residues 1–366); made in house
# T3 sequence (O43314 1-366 E192G): T1 sequence (O43314 1-366 K54A) with A54K, E192G
# Method: as §1, §2, §3, §4
# (§6) the PRODRG server. The molecular graphics representations were prepared with the program
# (§7) PyMol (Schrödinger, LLC). The 2D ligand-protein interaction diagrams were generated by
# (§8) LigPlot+. Atomic coordinates and structure factors have been deposited with the Protein Data
# (§9) Bank with accession codes: 4NZM, 4NZN, 4NZO.
# (§10) Mutants were generated using a site-directed mutagenesis kit (Stratagene). Pairs of complementary
# primers were designed as shown below, with mutagenic primers underlined (only 5’ primers are
# All mutated constructs were sequenced. Mutant proteins were expressed and purified as for wild-
# PPIP5K2^KD E192Q mutant = target: T4, PPIP5K2^KD E192Q mutant (Homo sapiens, UniProt O43314, E192Q); experiment: ATPase activity of E192Q mutant; details: 25 μM, Figure 7E
# T4 construct: The kinase domain of human PPIP5K2 (PPIP5K2^KD; residues 1–366); made in house
# T4 sequence (O43314 1-366 E192Q): T1 sequence (O43314 1-366 K54A) with A54K, E192Q
# Method: as §1
# Protein Expression, Purification, Crystallization and Structure Determination
# Full-length human IP6K2, the kinase domain of human PPIP5K2 (PPIP5K2KD; residues 1-
# 366), and the N-terminally truncated domain used for the crystallography studies (residues
# 41-366) were all sub-cloned, expressed and purified as before (Wang et al., 2012; Weaver et
# al., 2013). […]
# as §3, §4, §6, §7, §8, §9, §10
# primers were designed as shown below, with mutagenic primers underlined (only 5’ primers are […]
Compound,stimulation of ATPase activity vs wild-type (in words) (PPIP5K2^KD K54A mutant),analog-activated ATPase activity compared to wild-type enzyme (in words) (PPIP5K2^KD K103A mutant),rate of ligand-stimulated ATPase activity vs wild-type (in words) (PPIP5K2^KD E192G mutant),rate of ligand-stimulated ATPase activity vs wild-type (in words) (PPIP5K2^KD E192Q mutant)
"O=C(CP(=O)(O)O)O[C@@H]1[C@@H](OP(=O)(O)O)[C@H](OP(=O)(O)O)[C@H](OCc2ccccc2)[C@H](OP(=O)(O)O)[C@H]1OP(=O)(O)O [compound 2, 2-O-benzyl-5-O-α-phosphonoacetyl-myo-inositol 1,3,4,6-tetrakisphosphate]",substantially impaired degree of stimulation,only a slight reduction,neither of these particular mutations altered the rate,neither of these particular mutations altered the rate
"O=P(O)(O)O[C@@H]1[C@@H](OCc2ccccc2)[C@H](OP(=O)(O)O)[C@@H](OP(=O)(O)O)[C@@H](OCc2ccccc2)[C@H]1OP(=O)(O)O [compound 10, 2,5-di-O-Bn-InsP4]",substantially impaired degree of stimulation,only a slight reduction,neither of these particular mutations altered the rate,neither of these particular mutations altered the rate
